The target in data set [1] is T1, xanthine oxidase (Mus musculus, UniProt Q00519). As to the kind of experiment: Effect of allopurinol predosing on PZA and POA exposure in CD-1 mice. As to conditions: allopurinol pretreatment either 4 doses of 20 mg/kg or 1 dose of 40 mg/kg.
The conditions of data set [2]: C3HeB/FeJ, mouse, in vivo.
Test in data set [3]: not given
The source holds these as a separate data set.

For data set [4] the following is noted: female, rabbit, in vivo, po, 250 mg/kg.
Data set [5] is described as follows: in vivo. As to conditions: female, CD-1, mouse, plasma, po, 150 mg/kg.
The nature of data set [6]: Solubility of POA in aqueous media. The data set is classed as physicochemical.
Data set [7] is classed as in vivo, human. As to conditions: for CmaxPZA: Korean subjects, PZA 22–30 mg/kg.
The nature of data set [8]: Oral pharmacokinetics of POA in preclinical species. It is filed as in vivo. As to conditions: single oral POA dose; mice, guinea pigs and rabbits.
Data set [9] deals with M. tuberculosis strains H37Rv and H37Ra. As to the kind of experiment: In vitro growth inhibitory assay in liquid medium. It is filed as cell-based, Mycobacterium tuberculosis.
A short description of data set [10]: in vivo. As to conditions: BALB/c, mouse, po, 150 mg/kg.
Data set [11] concerns the target T1, xanthine oxidase. As to conditions: female, CD-1, mouse, in vivo, po, 40 mg/kg.
Data set [12] deals with xanthine oxidase. As to the kind of experiment: Effect of allopurinol predosing on PZA and POA exposure in NZW rabbits. The data set is classed as in vivo, rabbit. As to conditions: for AUC: female, New Zealand white, rabbit, plasma, 40 mg/kg.
Data set [13] in a line: Plasma pharmacokinetics of oral PZA or POA in naïve guinea pigs.
Data set [14] in a line: Plasma pharmacokinetics of oral PZA or POA in naïve New Zealand white rabbits. It is filed as in vivo, rabbit.
Test in data set [15]: not given
This is another data set of the same source.

Data set [16] has as its system acute intravenous infection. As to conditions: administered at 2 to 5% in food; cited from earlier work.
The test system of data set [17] is M. tuberculosis H37Rv or H37Ra. As to the kind of experiment: Susceptibility on solid media. It is filed as cell-based, Mycobacterium tuberculosis.
For data set [18] the following is noted: cited from earlier work.
Data set [19] can be described thus: in vivo. As to conditions: female, New Zealand white (NZW), rabbit, po, 250 mg/kg.
The nature of data set [20]: in vivo. As to conditions: female, C3HeB/FeJ, mouse, plasma, po, 150 mg/kg.
Test in data set [21]: not given
The source holds these as a separate data set.

Data set [22] in a line: in vivo. As to conditions: C3HeB/FeJ, mouse, po.
Data set [23] in a line: Plasma pharmacokinetics of PZA and POA metabolite in uninfected marmosets.
Where [24] appears, read: both, human, plasma, oral, 1500 mg.
Setting [25] is: over a 24 h period, 14 TB patients, 1500 mg PZA, from PK model.
[26] abbreviates: female, Hartley, guinea pig, in vivo, po, 300 mg/kg.
Where [27] appears, read: female, BALB/c, mouse, in vivo, po, 150 mg/kg.
The mark [28] stands for this setting: both, human, plasma, po, 1500 mg.
Where [29] appears, read: female, New Zealand white, rabbit, plasma, po.

Like-named read-outs stand apart in the source and are kept apart here.

T1 sequence (Q00519 whole entry): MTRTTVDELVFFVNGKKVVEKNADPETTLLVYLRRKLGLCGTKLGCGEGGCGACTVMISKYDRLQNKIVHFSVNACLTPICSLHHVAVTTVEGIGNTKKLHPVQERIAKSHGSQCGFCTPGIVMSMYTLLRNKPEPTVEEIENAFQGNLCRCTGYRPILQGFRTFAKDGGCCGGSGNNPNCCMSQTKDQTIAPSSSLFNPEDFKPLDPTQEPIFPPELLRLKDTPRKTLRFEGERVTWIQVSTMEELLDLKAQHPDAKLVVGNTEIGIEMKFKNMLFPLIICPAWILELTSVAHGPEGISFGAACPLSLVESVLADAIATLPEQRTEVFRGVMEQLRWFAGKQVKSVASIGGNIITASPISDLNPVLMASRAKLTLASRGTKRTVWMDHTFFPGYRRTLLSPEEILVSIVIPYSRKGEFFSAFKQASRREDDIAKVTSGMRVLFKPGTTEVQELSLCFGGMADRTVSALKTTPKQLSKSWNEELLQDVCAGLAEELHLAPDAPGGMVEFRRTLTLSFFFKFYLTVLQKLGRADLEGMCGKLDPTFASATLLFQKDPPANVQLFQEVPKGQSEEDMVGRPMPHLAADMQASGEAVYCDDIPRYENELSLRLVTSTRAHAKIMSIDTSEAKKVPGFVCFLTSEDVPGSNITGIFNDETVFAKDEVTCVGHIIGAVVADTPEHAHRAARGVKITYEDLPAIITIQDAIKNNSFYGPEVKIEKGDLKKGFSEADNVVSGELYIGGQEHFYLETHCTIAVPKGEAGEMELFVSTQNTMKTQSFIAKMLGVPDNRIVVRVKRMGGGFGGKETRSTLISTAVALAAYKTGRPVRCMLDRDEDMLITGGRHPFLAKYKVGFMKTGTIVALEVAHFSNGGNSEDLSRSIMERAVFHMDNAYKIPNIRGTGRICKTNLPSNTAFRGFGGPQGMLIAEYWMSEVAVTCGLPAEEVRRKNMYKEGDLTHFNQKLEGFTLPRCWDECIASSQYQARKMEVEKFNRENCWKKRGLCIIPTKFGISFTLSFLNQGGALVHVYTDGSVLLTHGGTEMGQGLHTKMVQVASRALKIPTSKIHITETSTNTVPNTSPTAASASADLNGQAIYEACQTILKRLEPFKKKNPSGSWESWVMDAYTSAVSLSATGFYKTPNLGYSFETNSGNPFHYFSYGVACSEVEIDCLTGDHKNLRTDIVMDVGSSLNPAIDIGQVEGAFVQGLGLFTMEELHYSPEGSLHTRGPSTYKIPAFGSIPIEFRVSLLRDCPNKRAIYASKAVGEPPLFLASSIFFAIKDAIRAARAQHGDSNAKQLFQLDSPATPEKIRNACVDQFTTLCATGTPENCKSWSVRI

On to `O=C(O)c1cnc(O)cn1` [5-hydroxy-POA, 5-hydroxypyrazinoate], for which, in data set [1], the “change in 5-hydroxy-POA exposure” value is given as “concomitant decrease”.

Turning to `O=C(O)c1cnccn1` [POA, pyrazinoic acid], in data set [2] (po), the “CLm/Fm, oral clearance of the POA metabolite” value is 2.18 (6) L/h/kg. Besides, the “Vm/Fm, oral volume of distribution of the POA metabolite” value in [2] (po) is 0.47 (13) L/kg. The “AUCPOA met (POA metabolite derived from dosing of PZA)” value in [2] (po, 150 mg/kg) is on record as 76 (16) µg·h/ml; in [4] (New Zealand white (NZW)), 504 (139) µg·h/ml; in [15] (setting [27]) it was 131 (13) µg·h/ml. The AUCPOA/AUCPZA ratio in [2] (po, 150 mg/kg) was 0.18 (0.02); in [4] (New Zealand white), 1.70 (0.21); in [15] (setting [27]), 0.38 (0.02). In addition, the CmaxPOA met in [2] (po, 150 mg/kg) is listed as 16(5) µg/mL; in data set [4] (New Zealand white (NZW)), 111 (27) µg/mL; in data set [15] (setting [27]) it was 43 (10) µg/mL. The CmaxPOA (naïve CD1 mice, single oral POA dose 150 mg/kg, average (SD)) is given as 102 (32) µg/mL; the CmaxPOA in [13] (naïve guinea pigs, single oral POA dose 300 mg/kg, average (SD)) is recorded as 165 (74) µg/mL; the CmaxPOA in data set [14] (naïve rabbits, single oral POA dose 200 mg/kg, average (SD)) is 244 (51) µg/mL; the CmaxPOA in data set [15] (naïve BalbC mice, single oral POA dose 150 mg/kg, average (SD)) is on record as 155(33) µg/mL. Also, the “concentrations at 24 h post PZA dosing” value in data set [3] is reported as “below the limit of quantification”. For the same compound, in data set [3] (female, New Zealand White, rabbit, in vivo), the tissue-to-plasma ratios is 0.2 and 0.5. The AUC came to 136 µg·h/mL in data set [5]; 287 µg·h/mL in [10] (female); 449 µg·h/mL in [13] (setting [26]); 2010 µg·h/mL in data set [14] (female, New Zealand white, rabbit, plasma, po, 200 mg/kg). Moreover, the “solubility in aqueous media” value in data set [6] is given as “poor solubility”. For the same compound, in [7] (active TB patients), the “POA/PZA exposure ratio in plasma” value is “approximately 0.2”. In [7] (setting [24]), this compound had a clearance of 31.7 mL/min. In addition, the “POA/PZA exposure ratio (range)” value in data set [7] (setting [25]) was 17–32%. Besides, the “median POA/PZA exposure ratio” value in [7] (setting [25]) was found to be 19%. Also, the oral bioavailability result in data set [8] is “orally bioavailable”. For the same compound, the “potency relative to PZA in liquid medium” value in data set [9] (pH 5.5, 5.8 and 6.5, H37Ra and H37Rv) is “consistently more potent than PZA”. Besides, the “fold more potent than PZA in vitro” value in data set [9] (various pH and inocula) is 2- to 4 fold. Further, the “fold increase in POA exposure” value in data set [11] worked out at 12 fold. In data set [12] (rabbits, allopurinol 3 doses of 40 mg/kg followed by oral PZA 150 mg/kg), the “effect of allopurinol predosing on POA exposure” value is given as “no effect”. In addition, the “efficacy in a mouse model of acute intravenous infection” value in [16] is “lack of POA efficacy”. In addition, the “potency relative to PZA on agar plates” value in data set [17] is “twice as potent as PZA”.

In general, CL/F refers to the apparent clearance, not corrected for the fraction that reaches the circulation. In general, Vd/F refers to the volume of distribution divided by bioavailability. Take `NC(=O)c1cnccn1` [PZA, pyrazinamide]: the “human-equivalent PZA dose” value was 160 mg/kg in data set [2]; 100 mg/kg in data set [23] (naïve marmosets, calculated to achieve a target AUC of 450 mg·h/L); 400 mg/kg in [13] (naïve guinea pigs, calculated to achieve a target AUC of 450 mg·h/L); 300 mg/kg in [14] (naïve rabbits, calculated to achieve a target AUC of 450 mg·h/L); 175 mg/kg in data set [15] (BALB/c, mouse, in vivo). The “ka, absorption rate constant” value in data set [2] was 220 (1) h^−1; the “ka, absorption rate constant” value (CD1 mice, PK model typical value (standard error)) is on record as 15 (11) h^−1; the “ka, absorption rate constant” value in [21] (C3HeB/FeJ mice, PK model typical value (standard error)) is listed as 4.47 (21) h^−1; the “ka, absorption rate constant” value in [7] (TB patients, PK model typical value (standard error)) is listed as 0.72 (18) h^−1; the “ka, absorption rate constant” value in [23] (marmosets, PK model typical value (standard error)) is recorded as 0.81 (7) h^−1; the “ka, absorption rate constant” value in [13] (guinea pigs, PK model typical value (standard error NA)) is on record as 7.7 (NA) h^−1. Besides, the “ka, absorption rate constant” value is on record as 4.8 (2) h^−1 in data set [14] (rabbits, PK model typical value (standard error)) and 18 (8) h^−1 in data set [15] (BALB/c mice, PK model typical value (standard error)). Also, the CmaxPZA in data set [2] (po, 150 mg/kg) is on record as 89 (20) µg/mL; the CmaxPZA (naïve CD1 mice, single oral PZA dose 150 mg/kg, average (SD)) is reported as 109 (11) µg/mL; the CmaxPZA in data set [4] (New Zealand white (NZW)) was 90 (35) µg/mL; the CmaxPZA in data set [21] (naïve C3HeB/FeJ mice, single oral PZA dose 150 mg/kg, average (SD)) is reported as 190 (24) µg/mL; the CmaxPZA in [7] (single dose) is reported as 43 µg/mL; the CmaxPZA in data set [7] (steady state) is on record as 59 µg/mL. In addition, the CmaxPZA in data set [23] (naïve marmosets, single oral PZA dose 125 mg/kg, average (SD)) was 80 (47) µg/mL; in data set [13] (naïve guinea pigs, single oral PZA dose 300 mg/kg, average (SD)) it was 179 (100) µg/mL; in [14] (naïve rabbits, single oral PZA dose 300 mg/kg, average (SD)), 82 (17) µg/mL; in [15] (setting [27]), 163 (38) µg/mL. Also, the ““normal” peak plasma concentrations” value in data set [18] (1 to 2 h postdose) is 20 to 60 µg/mL. The “mean AUC” value in data set [18] (TB patients receiving a standard daily dose of 1500 mg PZA) was 380 to 625 µg·h/mL. Besides, the AUC is 296 µg·h/mL in data set [19]; 580 µg·h/mL in data set [20]; 210 µg·h/mL in data set [5]; 617 to 738 µg·h/mL in data set [7] (both, human, plasma, po); 388 µg·h/mL in data set [10]; 425 µg·h/mL in data set [22] (150 mg/kg). Further, the AUC stood at 743 µg·h/mL in [23] (marmoset (Callithrix jacchus), in vivo, po, 125 mg/kg); 342 µg·h/mL in [13] (setting [26]); 457 µg·h/mL in data set [14] (female, New Zealand white, rabbit, plasma, po, 300 mg/kg). In addition, the CL/F in data set [20] was 10.3 mL/min/kg; in data set [5] it was 12.5 mL/min/kg; in data set [7] (setting [28]) it was 0.467 mL/min/kg; in data set [10] (female) it was 7.83 mL/min/kg; in [22], 6.33 mL/min/kg; in [23] (monkey, in vivo, po, 125 mg/kg), 3.83 mL/min/kg. The apparent clearance CL/F in data set [13] (setting [26]) and in data set [14] (setting [29]) was 12.5 mL/min/kg in each case. In addition, the Vd/F came out at 1.02 L/kg in data set [20]; 1.28 L/kg in data set [5]; 0.49 L/kg in data set [7] (setting [28]); 0.78 L/kg in data set [10] (female); 1.85 L/kg in data set [22]; 1.1 L/kg in data set [23] (monkey, in vivo, po, 125 mg/kg). For the same compound, the figures for the Vd/F in data set [13] (setting [26]) and in data set [14] (setting [29]) were 2.54 L/kg and 3.72 L/kg, respectively. Moreover, the k el was 0.000169 s⁻¹ in [20]; 0.000161 s⁻¹ in data set [5]; 1.58e-05 s⁻¹ in data set [7] (setting [24]); 0.000167 s⁻¹ in [10] (female); 5.83e-05 s⁻¹ in data set [23] (monkey, in vivo, po, 125 mg/kg); 8.06e-05 s⁻¹ in data set [13] (setting [26]). Moreover, the k el in data set [14] (setting [29]) is 5.56e-05 s⁻¹. Besides, in data set [3], the “concentrations at 24 h post PZA dosing” value is recorded as “below the limit of quantification”. The compound further gave a clearance in data set [7] (setting [24]) of 28.3 mL/min. The “susceptibility of H37Rv compared with H37Ra” value in data set [9] (across the pH range) is “less susceptible to PZA than H37Ra”.

For `Oc1ncnc2[nH]ncc12` [allopurinol], in [12], the AUC is 8 µg·h/mL.

The compound `O=c1[nH]c(=O)c2c[nH]nc2[nH]1` [oxypurinol] returned an AUC in [12] of 124 µg·h/mL.

The record behind these values is PMC4467917 (ACS infectious diseases, 2015).
